{"source": "patent US11400106B2", "about": "“Methods for inhibiting microbe growth” (priority 2018, dated 2022)", "key": {"Pseudomonas aeruginosa": {"test_system": "Pseudomonas aeruginosa", "test": "MIC determination against Pseudomonas aeruginosa", "assay_type": "cell-based", "experimental": "(§1) In the following experiments, bacterial cells were cultured in 96-well microtiter plates in cation-adjusted Mueller-Hinton Broth (MHB) for 18 h at 37° C. The main strains used were E. coli (K-12 BW25113) (placed in stationary incubator) and S. aureus (Newman Strain) (incubated at 250 r.p.m). Knockout strains (ΔtolcC and ΔychM) were used from the Keio knockout collection (Baba et al., Construction of Escherichia coli K-12 in-frame, single-gene knockout mutants: the Keio collection. Mol Syst Biol 2, 2006 0008, doi:10.1038/msb4100050 (2006)). For MIC determination and checkerboard analyses, Clinical & Laboratory Standards Institute (CLSI) protocol was used. […] DiSC3 loading of S. aureus cells was performed as previously described (Farha et al., Collapsing the proton motive force to identify synergistic combinations against Staphylococcus aureus. Chemistry & biology 20, 1168-1178, doi:10.1016/j.chembiol.2013.07.006 (2013)). CCCP concentration of 20 μM was used. pH adjustments were made by addition of HCl or NaOH. INT assay and ATP bioluminescence assays were performed as previously described (Farha et al., Collapsing the proton motive force to identify synergistic combinations against Staphylococcus aureus. Chemistry & biology 20, 1168-1178, doi:10.1016/j.chembiol.2013.07.006 (2013)). For chemical-genomic studies, the Keio library was grown overnight in cation-adjusted MHB broth, in 384-well plates. From these, treatment plates (25 mM sodium bicarbonate, or a sterile water control) were inoculated and grown for 15 hours at 37° C., in a stationary incubator. Data was normalized according to Mangat et al (Mangat et al., Rank ordering plate data facilitates data visualization and normalization in high-throughput screening. J Biomol Screen 19, 1314-1320, doi:10.1177/1087057114534298 (2014)), with gene products and GO terms mined from EcoCyc. […]"}, "Klebsiella pneumoniae": {"test_system": "Klebsiella pneumoniae", "test": "MIC determination against Klebsiella pneumoniae", "assay_type": "cell-based", "experimental": "as §1"}, "Burkhloderia cenocepacia": {"test_system": "Burkhloderia cenocepacia", "test": "MIC determination against Burkhloderia cenocepacia", "assay_type": "cell-based", "experimental": "as §1, with “(2013)).” for “(2013)). For chemical-genomic studies, the Keio library was grown overnight in cation-adjusted MHB broth, in 384-well plates. From these, treatment plates (25 mM sodium bicarbonate, or a sterile water control) were inoculated and grown for 15 hours at 37° C., in a stationary incubator. Data was normalized according to Mangat et al (Mangat et al., Rank ordering plate data facilitates data visualization and normalization in high-throughput screening. J Biomol Screen 19, 1314-1320, doi:10.1177/1087057114534298 (2014)), with gene products and GO terms mined from EcoCyc.”"}, "Enterococcus faecalis": {"test_system": "Enterococcus faecalis", "test": "MIC determination against Enterococcus faecalis", "assay_type": "cell-based"}, "E. coli [1]": {"test_system": "E. coli", "test": "Checkerboard microdilution with sodium bicarbonate against E. coli", "assay_type": "cell-based, Escherichia coli", "experimental": "(§2) In the following experiments, bacterial cells were cultured in 96-well microtiter plates in cation-adjusted Mueller-Hinton Broth (MHB) for 18 h at 37° C. The main strains used were E. coli (K-12 BW25113) (placed in stationary incubator) and S. aureus (Newman Strain) (incubated at 250 r.p.m). Knockout strains (ΔtolcC and ΔychM) were used from the Keio knockout collection (Baba et al., Construction of Escherichia coli K-12 in-frame, single-gene knockout mutants: the Keio collection. Mol Syst Biol 2, 2006 0008, doi:10.1038/msb4100050 (2006)). For MIC determination and checkerboard analyses, Clinical & Laboratory Standards Institute (CLSI) protocol was used. […] DiSC3 loading of S. aureus cells was performed as previously described (Farha et al., Collapsing the proton motive force to identify synergistic combinations against Staphylococcus aureus. Chemistry & biology 20, 1168-1178, doi:10.1016/j.chembiol.2013.07.006 (2013)). CCCP concentration of 20 μM was used. pH adjustments were made by addition of HCl or NaOH. INT assay and ATP bioluminescence assays were performed as previously described (Farha et al., Collapsing the proton motive force to identify synergistic combinations against Staphylococcus aureus. Chemistry & biology 20, 1168-1178, doi:10.1016/j.chembiol.2013.07.006 (2013)). For chemical-genomic studies, the Keio library was grown overnight in cation-adjusted MHB broth, in 384-well plates. From these, treatment plates (25 mM sodium bicarbonate, or a sterile water control) were inoculated and grown for 15 hours at 37° C., in a stationary incubator. Data was normalized according to Mangat et al (Mangat et al., Rank ordering plate data facilitates data visualization and normalization in high-throughput screening. J Biomol Screen 19, 1314-1320, doi:10.1177/1087057114534298 (2014)), with gene products and GO terms mined from EcoCyc. The GFP promoter library (Keseler et al., EcoCyc: fusing model organism databases with systems biology. Nucleic Acids Res 41, D605-612, doi:10.1093/nar/gks1027 (2013)) was grown for 18 hours at ambient temperature with the same inoculation strategy as with the Keio collection. The analysis pipeline of Zaslaver et al (Zaslaver et al., A comprehensive library of fluorescent transcriptional reporters for Escherichia coli. Nat Methods 3, 623-628, doi:10.1038/nmeth895 (2006)) was used to generate maps of promoter activity, from which lists of promoters with increased or decreased activity were compiled.\n(§3) The effect of sodium bicarbonate on the activity of various antibacterial agents was investigated. Clinical isolates of various bacteria were obtained from the American Type Culture Collection (“ATCC”) and the International Health Management Associates (“IHMA”). Fractional inhibitory concentration indices (FICIs) were determined by setting up standard checkerboard broth microdilution assays in 96-well microtiter plates with serially diluted 8 (or 10) concentrations of each drug (sodium bicarbonate and the antibacterial agent). The protocol for checkerboard analyses was based on the CLSI guidelines. Plates were incubated at 37° C. for 18 hours, and optical density was read at 600 nm. At least 3 replicates were done for each query compound.\n(§4) The FIC index (FICI) is the sum of the two FICs. Chemical-chemical interactions with ΣFIC of less or equal to 0.5 were deemed synergistic.\n(§5) As validation, three of the antibiotic agents were further tested with checkerboard analyses. Checkerboard broth microdilution assays were set up in 96-well microtiter plates with serially diluted 8 (or 10) concentrations of each compound (sodium bicarbonate and the antibiotic). The protocol for checkerboard analyses was based on the CLSI guidelines. Plates were incubated at 37° C. for 18 hours, and optical density was read at 600 nm. At least 3 replicates were done for each query compound."}, "Acinetobacter baumannii": {"test_system": "Acinetobacter baumannii", "test": "MIC determination against Acinetobacter baumannii", "assay_type": "cell-based", "details": "for MIC: Acinetobacter baumannii", "experimental": "as §2"}, "S. aureus [2]": {"test_system": "S. aureus", "test": "microbe, parasite or virus in culture", "details": "for MIC: Staphylococcus aureus; for MIC, S. aureus, MHB−: MHB in the absence of sodium bicarbonate; for MIC, S. aureus, MHB+: MHB in the presence of 25 mM sodium bicarbonate"}, "Burkhloderia multivorans": {"test_system": "Burkhloderia multivorans", "test": "MIC determination against Burkhloderia multivorans", "assay_type": "cell-based", "experimental": "as §1, with “(2013)).” for “(2013)). For chemical-genomic studies, the Keio library was grown overnight in cation-adjusted MHB broth, in 384-well plates. From these, treatment plates (25 mM sodium bicarbonate, or a sterile water control) were inoculated and grown for 15 hours at 37° C., in a stationary incubator. Data was normalized according to Mangat et al (Mangat et al., Rank ordering plate data facilitates data visualization and normalization in high-throughput screening. J Biomol Screen 19, 1314-1320, doi:10.1177/1087057114534298 (2014)), with gene products and GO terms mined from EcoCyc.”"}, "E. coli [3]": {"test_system": "E. coli", "test": "microbe, parasite or virus in culture", "assay_type": "cell-based, Escherichia coli"}, "[4]": {"excerpt": "PMF is driven in part by a transmembrane gradient where the periplasmic side of the membrane has a greater concentration of protons. Thus, the addition of buffering agents to alter the external pH can have a significant effect on PMF. […] Steps were taken throughout the studies to confirm that bicarbonate supplemented media were at pH 7.4, and adjusted where necessary."}, "E. coli [5]": {"test_system": "E. coli", "test": "Gentamicin potency analysis with CCCP pre-treatment", "assay_type": "cell-based, Escherichia coli", "details": "25 mM sodium bicarbonate, CCCP pre-treated cells", "protocol": "In the following experiments, bacterial cells were cultured in 96-well microtiter plates in cation-adjusted Mueller-Hinton Broth (MHB) for 18 h at 37° C. The main strains used were E. coli (K-12 BW25113) (placed in stationary incubator) and S. aureus (Newman Strain) (incubated at 250 r.p.m). […] For MIC determination and checkerboard analyses, Clinical & Laboratory Standards Institute (CLSI) protocol was used. […] DiSC3 loading of S. aureus cells was performed as previously described (Farha et al., Collapsing the proton motive force to identify synergistic combinations against Staphylococcus aureus. Chemistry & biology 20, 1168-1178, doi:10.1016/j.chembiol.2013.07.006 (2013)). CCCP concentration of 20 μM was used. pH adjustments were made by addition of HCl or NaOH. INT assay and ATP bioluminescence assays were performed as previously described (Farha et al., Collapsing the proton motive force to identify synergistic combinations against Staphylococcus aureus. Chemistry & biology 20, 1168-1178, doi:10.1016/j.chembiol.2013.07.006 (2013)). For chemical-genomic studies, the Keio library was grown overnight in cation-adjusted MHB broth, in 384-well plates. […]"}, "S. aureus [6]": {"test_system": "S. aureus", "test": "Checkerboard microdilution with sodium bicarbonate against S. aureus", "assay_type": "cell-based, Staphylococcus aureus", "experimental": "as §2, §3, §4, §5"}, "[7]": {"details": "read-out: MIC, tissue culture media formulated to mimic the natural environment"}, "[8]": {"details": "antibiotic agents, fold shift in MIC, MHB− vs MHB+"}}, "note": "Like-named read-outs stand apart in the source and are kept apart here."}
{"compound": "N=C(N)c1ccc(OCCCCCOc2ccc(C(=N)N)cc2)cc1", "note": "[pentamidine isethionate]", "values": [{"measurement": "MIC", "setting": "Pseudomonas aeruginosa; read-out: MIC, MHB", "value": "> 200", "unit": "µg/mL"}, {"measurement": "MIC", "setting": "Pseudomonas aeruginosa; [7]", "value": 12.5, "unit": "µg/mL"}, {"measurement": "MIC", "setting": "Klebsiella pneumoniae; read-out: MIC, MHB", "value": "> 200", "unit": "µg/mL"}, {"measurement": "MIC", "setting": "Klebsiella pneumoniae; [7]", "value": 12.5, "unit": "µg/mL"}, {"measurement": "MIC", "setting": "Burkhloderia cenocepacia; read-out: MIC, MHB", "value": "> 200", "unit": "µg/mL"}, {"measurement": "MIC", "setting": "Burkhloderia cenocepacia; [7]", "value": 12.5, "unit": "µg/mL"}, {"measurement": "MIC", "setting": "Enterococcus faecalis; read-out: MIC, MHB", "value": 25, "unit": "µg/mL"}, {"measurement": "MIC", "setting": "Enterococcus faecalis; [7]", "value": 3.1, "unit": "µg/mL"}, {"measurement": "interaction with sodium bicarbonate (checkerboard)", "setting": "E. coli [1]", "value": "greatly potentiated"}, {"measurement": "enhanced potency in tissue culture media formulated to mimic the natural environment", "setting": "Acinetobacter baumannii; A. baumannii, versus standard media", "value": "> 50", "unit": "fold"}, {"measurement": "MIC", "setting": "Acinetobacter baumannii; read-out: MIC, MHB", "value": 100, "unit": "µg/mL"}, {"measurement": "MIC", "setting": "Acinetobacter baumannii; [7]", "value": 12.5, "unit": "µg/mL"}, {"measurement": "MIC", "setting": "S. aureus [2]; read-out: MIC, MHB", "value": 12.5, "unit": "µg/mL"}, {"measurement": "MIC", "setting": "S. aureus [2]; [7]", "value": "< 0.1", "unit": "µg/mL"}, {"measurement": "MIC", "setting": "Burkhloderia multivorans; read-out: MIC, MHB", "value": "> 200", "unit": "µg/mL"}, {"measurement": "MIC", "setting": "Burkhloderia multivorans; [7]", "value": 12.5, "unit": "µg/mL"}, {"measurement": "MIC, tissue culture media formulated to mimic the natural environment", "setting": "E. coli [3]; Escherichia coli", "value": 1.5, "unit": "µg/mL"}, {"measurement": "MIC", "setting": "E. coli [3]; Escherichia coli, Mueller Hinton Broth, read-out: MIC, MHB", "value": 200, "unit": "µg/mL"}, {"measurement": "MIC", "setting": "E. coli [3]; Escherichia coli, read-out: MIC, tissue culture media formulated to mimic the natural environment", "value": 1, "unit": "µg/mL"}]}
{"compound": "O=P([O-])([O-])[O-].[Na+].[Na+].[Na+]", "note": "[trisodium phosphate]", "values": [{"measurement": "effect on activity of dirithromycin, pH not adjusted", "setting": "[4]; pH not adjusted (pH~10)", "value": "potentiated the activity of dirithromycin"}, {"measurement": "effect on activity of dirithromycin, pH adjusted", "setting": "[4]; pH of the medium adjusted to 7.2", "value": "loss of synergy"}]}
{"compound": "Gentamicin", "values": [{"measurement": "Fold, S. aureus", "setting": "S. aureus [2]", "value": 2}, {"measurement": "MIC, S. aureus, MHB−", "setting": "S. aureus [2]", "value": 2}, {"measurement": "MIC, S. aureus, MHB+", "setting": "S. aureus [2]", "value": 1}, {"measurement": "effect of CCCP pre-incubation on potentiation by sodium bicarbonate", "setting": "E. coli [5]", "value": "reversed the potentiation"}, {"measurement": "Fold, E. coli", "setting": "E. coli [3]", "value": 8}]}
{"compound": "Spiramycin", "values": [{"measurement": "interaction with sodium bicarbonate (checkerboard)", "setting": "E. coli [1]", "value": "synergistic interactions"}, {"measurement": "MIC, S. aureus, MHB−", "setting": "S. aureus [2]; antibiotic agents", "value": "16 μg of antimicrobial agent/mL of buffer"}, {"measurement": "MIC, S. aureus, MHB+", "setting": "S. aureus [2]; antibiotic agents", "value": "0.5 μg of antimicrobial agent/mL of buffer"}, {"measurement": "Fold, S. aureus", "setting": "S. aureus [2]; [8]", "value": 16}, {"measurement": "MIC, E. coli, MHB+", "setting": "E. coli [3]", "value": "64 μg of antimicrobial agent/mL of buffer"}, {"measurement": "MIC, E. coli, MHB−", "setting": "E. coli [3]; antibiotic agents, MHB in the absence of sodium bicarbonate", "value": ">128 μg of antimicrobial agent/mL of buffer"}, {"measurement": "Fold, E. coli", "setting": "E. coli [3]; [8]", "value": 8}, {"measurement": "interaction with sodium bicarbonate (checkerboard)", "setting": "S. aureus [6]", "value": "synergistic interactions"}]}
